Measured values as given in US8476197B2, “Aminopropenoates as fungicides” (priority 2009, dated 2013).
Marks after values point to notes of the source that are not given here.

Conditions: pH 2.3

Row | Structure (SMILES) | Log P
1 | CONC(=O)C(C#N)=C(NC(C)C(C)C)c1cccnc1Cl (stereo not drawn) [Compound 960] | 2.31
2 | CCNC(=O)C(C#N)=C(Nc1ccccc1SC)c1cccnc1Cl [Compound 1616] | 2.85
3 | COC(=O)C(C#N)=C(NCC(N)=O)c1cccnc1Cl [Compound 569] | 1.14

Same assay, conditions: pH 2.7

Row | Structure (SMILES) | Log P
4 | CCOC(=O)C(C#N)=C(NC(C)c1cc(Cl)cc(Cl)n1)c1cccnc1Cl (stereo not drawn) [Compound 1639] | 3.7^[a]
5 | CCOC(=O)C(C#N)=C(NC1(c2c(F)cccc2F)CC1)c1cccnc1Cl [Compound 543] | 3.39^[a]
6 | COC(=O)C(C#N)=C(NC(C)C1CC1)c1cccnc1Cl (stereo not drawn) [Compound 880] | 2.58^[a]
7 | COC(=O)C(C#N)=C(NC(C)COc1c(C)cccc1C)c1sc(C)nc1C(F)(F)F (racemic) [Compound 662] | 4.34^[a]
8 | CCOC(=O)C(C#N)=C(NC(C)c1nccs1)c1ccncc1F (stereo not drawn) [Compound 318] | 2.41^[a]
9 | CCOC(=O)C(C#N)=C(NC(C)CCCC(C)C)c1ccsc1Br (stereo not drawn) [Compound 930] | 5.32^[a]
10 | CCOC(=O)C(C#N)=C(NC(C)C(C)C)c1cn(C)nc1C(F)F (stereo not drawn) [Compound 933] | 3.13^[a]
11 | CCOC(=O)C(C#N)=C(NCc1nccs1)c1conc1C [Compound 76] | 2.04^[a]
12 | C#CCNC(=O)C(C#N)=C(NC(C)c1nccs1)c1cn(C)nc1C(F)F (stereo not drawn) [Compound 1297] | 2.04^[a]
13 | CCOC(=O)C(C#N)=C(NC(C)C(C)(C)C)c1sccc1C(F)(F)F (racemic) [Compound 919] | 4.46^[a]
14 | CCOC(=O)C(C#N)=C(NC1CCCCC1)c1cc(Cl)sc1Cl [Compound 1630] | 4.92^[a]
15 | C=CCOC(=O)C(C#N)=C(NC(C)C(C)C)c1cccnc1Cl (stereo not drawn) [Compound 955] | 3.55
16 | CCOC(=O)C(C#N)=C(NC(C)C(=O)Nc1ccc2ccccc2c1)c1cn(C)nc1C(F)F (stereo not drawn) [Compound 683] | 3.31^[a]
17 | CCOC(=O)C(C#N)=C(NCc1ccccn1)c1sc(C)nc1C(F)(F)F [Compound 144] | 2.7^[a]
18 | CCOC(=O)C(C#N)=C(Nc1ccccc1SC)c1sccc1Cl [Compound 435] | 3.92^[a]
19 | CCOC(=O)C(C#N)=C(NC(C)COc1ccccc1)c1cn(C)nc1C(F)F (stereo not drawn) [Compound 738] | 3.37^[a]
20 | CCOC(=O)C(C#N)=C(Nc1ccc(SC)cc1)c1sc(C)nc1C(F)(F)F [Compound 480] | 3.87^[a]
21 | CCOC(=O)C(C#N)=C(NC(C)c1ccn[nH]1)c1cccnc1Cl (stereo not drawn) [Compound 1608] | 2.1^[a]
22 | CCOC(=O)C(C#N)=C(NC(C)C1CCC1)c1cn(C)nc1C(Cl)Cl (racemic) [Compound 1561] | 3.67^[a]
23 | CCOC(=O)C(C#N)=C(NC(C)C(C)CC)c1cccnc1Cl (stereo not drawn) [Compound 1525] | 3.76^[a]
24 | CCOC(=O)C(C#N)=C(NC(C)c1ccc(Cl)cc1)c1cn(C)nc1C(C)F (mixture of isomers) [Compound 520] | 3.64^[a]
25 | CCOC(=O)C(C#N)=C(NC(C)c1ccccn1)c1sccc1Cl (racemic) [Compound 160] | 3.05^[a]
26 | CCCCCC(C)NC(=C(C#N)C(=O)OCC)c1cn(C)nc1C(F)F (stereo not drawn) [Compound 853] | 3.94^[a]
27 | CCOC(=O)C(C#N)=C(Nc1ccc(OC)cc1)c1ccsc1Br [Compound 525] | 3.6^[a]

Same assay, conditions: pH 7.5

Row | Structure (SMILES) | Log P
28 | CONC(=O)C(C#N)=C(NC(C)C(C)C)c1cccnc1Cl (stereo not drawn) [Compound 960] | 2.26
29 | CCNC(=O)C(C#N)=C(Nc1ccccc1SC)c1cccnc1Cl [Compound 1616] | 2.82
30 | C=CCOC(=O)C(C#N)=C(NC(C)C(C)C)c1cccnc1Cl (stereo not drawn) [Compound 955] | 3.49
31 | COC(=O)C(C#N)=C(NCC(N)=O)c1cccnc1Cl [Compound 569] | 0.94
32 | COC(=O)C(C#N)=C(NC(C)c1nccs1)c1cccnc1Br (stereo not drawn) [Compound 21] | 2.12
33 | COC(=O)C(C#N)=C(NC(C)C(N)=O)c1cccnc1Cl (stereo not drawn) [Compound 563] | 1.18
